Key:
HEK293 cells = assay: CellTiter-Glo Luminescent Cell Viability Assay in HEK293 cells; assay type: cell-based; conditions: Homo sapiens, 7 days (168 h) incubation, 3 μM to 0.00015 μM
Source text: CellTiter-Glo™ Assay in HEK293 Cells
The CellTiter-Glo™ Luminescent Cell Viability Assay (Promega) is a homogeneous method of determining the number of viable cells in culture based on quantitation of the ATP present, which signals the presence of metabolically active cells.
HEK293 cells (human embryonic kidney cell line transformed by Adenovirus 5 fragments, ATCC-No. CRL 1573) are cultivated in Dulbecco's Modified Eagle Medium (DMEM) with Glutamax™ (Invitrogen, 31966-021), 5% Fetal Calf Serum (FCS, Sigma Cat-No. F4135 (FBS)), 100 Units/ml penicillin/100 μg/ml streptomycin (=Pen/Strep from Invitrogen Cat. No. 15140). For the assay the cells are seeded in 384 well plates, 5000 cells per well, in the same medium. The next day the test compounds are added in various concentrations ranging from 3 μM to 0.00015 μM (10 concentrations, 1:3 diluted). After 7 days the CellTiter-Glo™ assay is done according to the instructions of the manufacturer (CellTiter-Glo™ Luminescent Cell Viability Assay, from Promega). In brief: the cell-plate is equilibrated to room temperature for approximately 30 minutes and than the CellTiter-Glo™ reagent is added. The contents are carefully mixed for 15 minutes to induce cell lysis. After 45 minutes the luminescent signal is measured in Victor 2, (scanning multiwell spectrophotometer, Wallac).
1. day: • Medium: Dulbecco's Modified Eagle Medium (DMEM) with Glutamax™ (Invitrogen, 31966-021), 5% Fetal Calf Serum (FCS, Sigma Cat-No. F4135 (FBS)), Pen/Strep (Invitrogen Cat. No. 15140). • HEK293 (ATCC-No. CRL 1573): 5000 cells in 60 μl per well of 384 well plate (Greiner 781098, white plates) • Incubate 24 h at 37° C., 5% CO2 2. day: Induction (Substance testing):
In general the dilution steeps are 1:3 • a) Add 8 μl of 10 mM stock solution of compound to 72 μl DMSO • b) dilute 9× 1:3 (always 30 μl to 60 μl DMSO) in this DMSO dilution row (results in 10 wells with concentrations from 1000 μM to 0.06 μM) • c) dilute each concentration 1:4.8 (10 μl compound dilution to 38 μl medium) • d) dilute each concentration 1:10 (10 μl compound dilution to 90 μl medium) • e) add 10 μl of every concentration to 60 μl medium in the cell plate • resulting in final concentration of DMSO: 0.3% in every well • and resulting in final concentration of compounds from 3 μM to 0.00015 μM • Incubate 168 h (7 days) at 37° C., 5% CO2
• Add 30 μl CellTiter-Glo™ Reagent/well, • shake 15 minutes at room temperature • incubate further 45 minutes at room temperature without shaking.
• Victor 2 scanning multiwell spectrophotometer (Wallac), Luminescence mode • Determine IC50 with XL-fit (XLfit software (ID Business Solution Ltd., Guilford, Surrey, UK)).

| SMILES | IC50 (HEK293 cells) [µM] | melting point [°C] |
| --- | --- | --- |
| FC(F)(F)Oc1ccc(/C=C/c2nc(COc3ccc(CCCCn4ccnc4)nn3)co2)cc1 [Example 1, 3-(4-Imidazol-1-yl-butyl)-6-{2-[(E)-2-(4-trifluoromethoxy-phenyl)-vinyl]-oxazol-4-ylmethoxy}-pyridazine] | 0.2 to 2 | – |
| Clc1ccc(/C=C/c2nc(COc3ccc(CCCCn4cncn4)nn3)co2)cc1 [Example 2, 3-{2-[(E)-2-(4-Chloro-phenyl)-vinyl]-oxazol-4-ylmethoxy}-6-(4-[1,2,4]triazol-1-yl-butyl)-pyridazine] | 0.2 to 2 | 165 to 167 |
| FC(F)(F)c1ccc(/C=C/c2nc(COc3ccc(CCCCn4cncn4)nn3)co2)cc1 [Example 3, 3-(4-[1,2,4]Triazol-1-yl-butyl)-6-{2-[(E)-2-(4-trifluoromethyl-phenyl)-vinyl]-oxazol-4-ylmethoxy}-pyridazine] | 0.93 | 145 to 146 |
| Fc1cc(C(F)(F)F)ccc1/C=C/c1nc(COc2ccc(CCCCn3cncn3)nn2)co1 [Example 4, 3-{2-[(E)-2-(2-Fluoro-4-trifluoromethyl-phenyl)-vinyl]-oxazol-4-ylmethoxy}-6-(4-[1,2,4]triazol-1-yl-butyl)-pyridazine] | 0.2 to 2 | 141 to 143 |
| FC(F)(F)c1ccc(/C=C/c2nc(COc3cnc(CCCCn4cncn4)cn3)co2)cc1 [Example 5, 2-(4-[1,2,4]Triazol-1-yl-butyl)-5-{2-[(E)-2-(4-trifluoromethyl-phenyl)-vinyl]-oxazol-4-ylmethoxy}-pyrazine] | 0.2 to 2 | 147 to 148 |
| Clc1ccc(/C=C/c2nc(COc3cnc(CCCCn4cncn4)cn3)co2)cc1 [Example 6, 2-{2-[(E)-2-(4-Chloro-phenyl)-vinyl]-oxazol-4-ylmethoxy}-5-(4-[1,2,4]triazol-1-yl-butyl)-pyrazine] | 1.34 | 157 to 158 |
| FC(F)(F)Oc1ccc(/C=C/c2nc(COc3cnc(CCCCn4cncn4)cn3)co2)cc1 [Example 7, 2-(4-[1,2,4]Triazol-1-yl-butyl)-5-{2-[(E)-2-(4-trifluoromethoxy-phenyl)-vinyl]-oxazol-4-ylmethoxy}-pyrazine] | – | 121 to 123 |
| FC(F)(F)Oc1ccc(/C=C/c2nc(COc3ncc(CCCCn4cccn4)cn3)co2)cc1 [Example 8, 5-(4-Pyrazol-1-yl-butyl)-2-{2-[(E)-2-(4-trifluoromethoxy-phenyl)-vinyl]-oxazol-4-ylmethoxy}-pyrimidine] | 0.2 to 2 | 143 to 145 |
| FC(F)(F)c1ccc(/C=C/c2nc(COc3ncc(CCCCn4cccn4)cn3)co2)cc1 [Example 9, 5-(4-Pyrazol-1-yl-butyl)-2-{2-[(E)-2-(4-trifluoromethyl-phenyl)-vinyl]-oxazol-4-ylmethoxy}-pyrimidine] | – | 156 to 157 |
| Clc1ccc(/C=C/c2nc(COc3ncc(CCCCn4cccn4)cn3)co2)cc1 [Example 10, 5-(4-Pyrazol-1-yl-butyl)-2-{2-[(E)-2-(4-chloro-phenyl)-vinyl]-oxazol-4-ylmethoxy}-pyrimidine] | 0.2 to 2 | 149 to 150 |
